Experimental data taken from article PMC6470533, “Structure–Activity Study, Characterization, and Mechanism of Action of an Antimicrobial Peptoid D2 and Its D- and L-Peptide Analogues” (Molecules, 2019).
Converted amounts (≈) assume the structure as drawn. Non-standard residues stand in square brackets, D forms with d. Residues, ends and D or L forms follow the SMILES beside them. No end group written: not given here. N(1-naphthylmethyl)Gly = O=C(O)CNCc1cccc2ccccc12; d1Nal = N[C@H](Cc1cccc2ccccc12)C(=O)O; N(4-MeBn)Gly = Cc1ccc(CNCC(=O)O)cc1; Gly(N-CH2CH2OH) = O=C(O)CNCCO; dNle = CCCC[C@@H](N)C(=O)O; NBuGly = CCCCNCC(=O)O; Nlys = NCCCCNCC(=O)O; Sar = CNCC(=O)O

Key:
red blood cell (RBC) = details: 0.5% RBC suspension in PBS, 1 h, 37 °C, read at 414 nm, normalized to mellitin and PBS, triplicates
Method: Briefly, 75 µL of peptide in PBS was mixed with 75 µL of a 0.5% red blood cell (RBC) suspension in PBS, and incubated for 1 h at 37 °C. The hemoglobin release was then measured at 414 nm and normalized, using mellitin as positive control and PBS as negative control. Experiments were done in triplicates.

[1] = test system: Staphylococcus aureus (ATCC 29213); assay type: cell-based; details: ATCC 29213, 18 h
[2] = test system: Methicillin sensitive Staphylococcus pseudintermedius (26916); assay type: cell-based; details: 18 h
[3] = test system: Methicillin resistant Staphylococcus pseudintermedius, (C22963); assay type: cell-based; details: 18 h
[4] = test system: Pseudomonas aeruginosa (ATCC 27853); assay type: cell-based; details: ATCC 27853, 18 h
Method: To explore the antimicrobial activity of the library of peptides and peptidomimetics, they were tested against Acinetobacter baumannii, Corynebacterium auriscanis, Escherichia coli, Enterococcus faecalis, Enterococcus faecium, Klebsiella pneumonia, Proteus mirabilis, and Pseudomonas aeruginosa. Bacteria grown on agar plates for 18 h at 37 °C were diluted to ~1 × 10^8 CFU/mL in Mueller–Hinton broth (MHB). Two-fold serial dilutions of peptides and peptidomimetics in MHB II were inoculated with bacteria to achieve a final concentration of 5 × 10^5 CFU/mL in polypropylene 96 U-well microtiter plates (Almeco, Esbjerg, Denmark), followed by incubation at 37 °C in ambient air for 18 h. The MIC values were determined as the lowest concentration showing no visible bacterial growth. Experiments were performed twice (in technical triplicates) on two different days.

[5] = test system: membrane proton motive force of E104 cells; experiment: DiSC3(5) fluorescence, membrane depolarization; assay type: cell-based, Staphylococcus pseudintermedius; details: 0.5× MIC, n = 2
Description: In this study, the DiSC3(5) probe was used to assess the effect of D2 and its structural analogues D2L, D2D, and D2R on cytoplasmic membrane depolarization. DiSC3(5) is a cationic carbocyanine dye, which accumulates on negatively charged membrane, translocates into lipid membrane with a distribution dependent on plasma and mitochondrial membrane potential. Altered emission profile of DiSC3(5) measured via fluorescence spectroscopy indicates membrane depolarization caused by proton motive force dissipation, ATP production and/or pore formation. The increment of DiSC3(5) fluorescence of labeled cells resulting from its leakage upon addition of antimicrobial agents is usually measured over time. The protonophore carbonyl cyanide metachlorophenyl hydrazone (CCCP) is used as positive control, which rapidly dissipates PMF increasing proton permeability, alters both membrane proton gradient and transmembrane electric potential and decreases cellular ATP content. Based on the MIC and growth analysis results, sub-lethal concentrations of D2 and selected analogues were chosen to perform DiSC3(5) fluorescence and macromolecule biosynthesis studies.
Freshly grown E104 cells with OD 0.2 at 600 nm were labeled with 1 µM 3,3-dipropylthiadicarbocyanine iodide [DiSC3(5)] (Sigma-Aldrich, Søborg, Denmark) in MHB. The fluorescence spectra of fluorophore-labeled cells were plotted using the LS-50B luminescence spectrometer (PerkinElmer, Waltham, MA, USA) at excitation/emission wavelengths 546 nm/573 nm using time drive application of FLWINLAB software. After reading initial stable emission spectra of DiSC3(5), labeled cells were exposed with D2 or analogues or nisin or protonophore CCCP by directly injecting the concentrated solution of agent to the cuvette, and the change of fluorescence over time was recorded until emission spectra reached to stability. The increment of DiSC3(5) fluorescence upon addition of antimicrobials or CCCP (FUafter-exposure – FUbefore-exposure) was calculated and plotted in addition to raw fluorescence spectra. Experiment was performed twice and average fluorescence change was plotted with standard deviation.

[6] = test system: DNA synthesis in MRSP E104; experiment: Macromolecule biosynthesis assay, DNA (3H-thymidine); assay type: cell-based, Staphylococcus pseudintermedius; details: 0.5× MIC, 20 min incubation, MRSP E104, 3H-thymidine; means of two experiments
Method: The effect on DNA and cell wall synthesis was investigated after 20 min of incubation of MRSP E104 with the precursors ^3H-thymidine and ^3H-glucosamine hydrochloride, respectively, as previously reported by Ling et al.. Following macromolecule precipitation, radioactivity was counted using scintillation fluid. Incorporation of ^3H- or ^14C-labeled thymidine has been used to investigate DNA replication and transcriptional activity during the cell cycle; ^3H-glucosamine hydrochloride has been used in a mode of action study for the antimicrobial peptide plectasin, which targets the cell wall precursor lipid II [44].
Macromolecules (DNA and cell wall) biosynthesis rates were measured using strain MRSP E104 following a protocol adapted from Ling et al.. Briefly, overnight culture of E104 was diluted 1:100 in MHB and freshly grown up to OD 0.2 at 600 nm. Grown cells were pelleted down by centrifugation and then resuspended in fresh MHB medium followed by incubation for 20 min on a dry heat-bath with D2 or analogues or nisin and radiolabeled precursor: (50 µCi) ^3H-Thymidine (PerkinElmer) and (5 µCi) ^3H-glucosamine hydrochloride per mL for DNA and cell wall, respectively. A positive control without antimicrobials was maintained that corresponds to 100% synthesis rate. After 20 min of incubation, samples were precipitated with equal volume of cold 30% trichloroactic acid (TCA Sigma, Søborg, Denmark) on ice. After 15 to 30 min of incubation on ice, precipitates were filtered on a membrane filter and subsequently washed twice with cold 15% TCA and twice with cold water using a vacuum manifold. Next, filters were air dried overnight and then moved to 10 mL scintillation vials. Finally, 3 mL scintillation fluid was added to each vial and ^3H count was taken in Beckman Coulter LS6500 liquid scintillation counter for 1 min. The radioactive counts of the control samples with no antimicrobial exposure were considered to have 100% precursor incorporation and macromolecule synthesis. The percentage rates of macromolecule synthesis in the antimicrobial-exposed samples were calculated compared to control. Each experiment was performed twice with a technical replicate, and the average rates of synthesis were plotted.

CCCCN(CC(N)=O)C(=O)CN(CCCCN)C(=O)CN(Cc1cccc2ccccc12)C(=O)CNC(=O)CN(Cc1ccc(C)cc1)C(=O)CN(Cc1cccc2ccccc12)C(=O)CN(CCCCN)C(=O)CNCCCCN [compound 5] (H-[Nlys][Nlys][N(1-naphthylmethyl)Gly][N(4-MeBn)Gly]G[N(1-naphthylmethyl)Gly][Nlys][NBuGly]-NH2; N-terminus assumed)
HA, percentage of hemolysis at 150 µM (red blood cell (RBC)): 25%
MIC SA [1]: 32 µg/mL (≈ 28.4 µM)
MIC MSSP [2]: 4 µg/mL (≈ 3.55 µM)
MIC MRSP [3]: 4 µg/mL (≈ 3.55 µM)
MIC PA [4]: 16 µg/mL (≈ 14.2 µM)

CCCCN(CC(N)=O)C(=O)CN(CCCCN)C(=O)CNC(=O)CN(CCCCN)C(=O)CN(Cc1ccc(C)cc1)C(=O)CN(Cc1cccc2ccccc12)C(=O)CN(CCCCN)C(=O)CNCCCCN [compound 6] (H-[Nlys][Nlys][N(1-naphthylmethyl)Gly][N(4-MeBn)Gly][Nlys]G[Nlys][NBuGly]-NH2; N-terminus assumed)
HA, percentage of hemolysis at 150 µM (red blood cell (RBC)): 6%
MIC SA [1]: >64 µg/mL
MIC MSSP [2]: >64 µg/mL
MIC MRSP [3]: >64 µg/mL
MIC PA [4]: >64 µg/mL

CCCCN(CC(N)=O)C(=O)CNC(=O)CN(Cc1cccc2ccccc12)C(=O)CN(CCCCN)C(=O)CN(Cc1ccc(C)cc1)C(=O)CN(Cc1cccc2ccccc12)C(=O)CN(CCCCN)C(=O)CNCCCCN [compound 7] (H-[Nlys][Nlys][N(1-naphthylmethyl)Gly][N(4-MeBn)Gly][Nlys][N(1-naphthylmethyl)Gly]G[NBuGly]-NH2; N-terminus assumed)
HA, percentage of hemolysis at 150 µM (red blood cell (RBC)): 85%
MIC SA [1]: 16 µg/mL (≈ 14.2 µM)
MIC MSSP [2]: 8 µg/mL (≈ 7.1 µM)
MIC MRSP [3]: 4 µg/mL (≈ 3.55 µM)
MIC PA [4]: 16 µg/mL (≈ 14.2 µM)

Cc1ccc(CN(CC(=O)N(CCCCN)CC(=O)N(CC(=O)N(CCCCN)CC(=O)NCC(N)=O)Cc2cccc3ccccc23)C(=O)CN(Cc2cccc3ccccc23)C(=O)CN(CCCCN)C(=O)CNCCCCN)cc1 [compound 8] (H-[Nlys][Nlys][N(1-naphthylmethyl)Gly][N(4-MeBn)Gly][Nlys][N(1-naphthylmethyl)Gly][Nlys]G-NH2; N-terminus assumed)
HA, percentage of hemolysis at 150 µM (red blood cell (RBC)): 49%
MIC SA [1]: 32 µg/mL (≈ 28 µM)
MIC MSSP [2]: 8 µg/mL (≈ 7 µM)
MIC MRSP [3]: 8 µg/mL (≈ 7 µM)
MIC PA [4]: 32 to 64 µg/mL

CCCCN(CC(N)=O)C(=O)CN(CCCCN)C(=O)CN(Cc1cccc2ccccc12)C(=O)CN(C)C(=O)CN(Cc1ccc(C)cc1)C(=O)CN(Cc1cccc2ccccc12)C(=O)CN(CCCCN)C(=O)CNCCCCN [compound 9] (H-[Nlys][Nlys][N(1-naphthylmethyl)Gly][N(4-MeBn)Gly][Sar][N(1-naphthylmethyl)Gly][Nlys][NBuGly]-NH2; N-terminus assumed)
HA, percentage of hemolysis at 150 µM (red blood cell (RBC)): 16%
MIC SA [1]: 16 µg/mL (≈ 14 µM)
MIC MSSP [2]: 4 µg/mL (≈ 3.5 µM)
MIC MRSP [3]: 4 µg/mL (≈ 3.5 µM)
MIC PA [4]: 32 µg/mL (≈ 28 µM)

CCCCN(CC(N)=O)C(=O)CN(CCCCN)C(=O)CN(Cc1cccc2ccccc12)C(=O)CN(Cc1ccc(C)cc1)C(=O)CN(Cc1ccc(C)cc1)C(=O)CN(Cc1cccc2ccccc12)C(=O)CN(CCCCN)C(=O)CNCCCCN [compound 10] (H-[Nlys][Nlys][N(1-naphthylmethyl)Gly][N(4-MeBn)Gly][N(4-MeBn)Gly][N(1-naphthylmethyl)Gly][Nlys][NBuGly]-NH2; N-terminus assumed)
HA, percentage of hemolysis at 150 µM (red blood cell (RBC)): 69%
MIC SA [1]: 8 µg/mL (≈ 6.5 µM)
MIC MSSP [2]: 8 µg/mL (≈ 6.5 µM)
MIC MRSP [3]: 8 µg/mL (≈ 6.5 µM)
MIC PA [4]: 16 µg/mL (≈ 13 µM)

CCCCN(CC(N)=O)C(=O)CN(CCCCN)C(=O)CN(Cc1cccc2ccccc12)C(=O)CN(Cc1cccc2ccccc12)C(=O)CN(Cc1ccc(C)cc1)C(=O)CN(Cc1cccc2ccccc12)C(=O)CN(CCCCN)C(=O)CNCCCCN [compound 11] (H-[Nlys][Nlys][N(1-naphthylmethyl)Gly][N(4-MeBn)Gly][N(1-naphthylmethyl)Gly][N(1-naphthylmethyl)Gly][Nlys][NBuGly]-NH2; N-terminus assumed)
HA, percentage of hemolysis at 150 µM (red blood cell (RBC)): 87%
MIC SA [1]: 8 µg/mL (≈ 6.31 µM)
MIC MSSP [2]: 8 µg/mL (≈ 6.31 µM)
MIC MRSP [3]: 8 µg/mL (≈ 6.31 µM)
MIC PA [4]: 16 µg/mL (≈ 12.6 µM)

CCCCN(CC(N)=O)C(=O)CN(CCCCN)C(=O)CN(Cc1cccc2ccccc12)C(=O)CN(CCO)C(=O)CN(Cc1ccc(C)cc1)C(=O)CN(Cc1cccc2ccccc12)C(=O)CN(CCCCN)C(=O)CNCCCCN [compound 12] (H-[Nlys][Nlys][N(1-naphthylmethyl)Gly][N(4-MeBn)Gly][Gly(N-CH2CH2OH)][N(1-naphthylmethyl)Gly][Nlys][NBuGly]-NH2; N-terminus assumed)
HA, percentage of hemolysis at 150 µM (red blood cell (RBC)): 5%
MIC SA [1]: 32 µg/mL (≈ 27.3 µM)
MIC MSSP [2]: 8 µg/mL (≈ 6.83 µM)
MIC MRSP [3]: 8 µg/mL (≈ 6.83 µM)
MIC PA [4]: >64 µg/mL

CCCC[C@@H](NC(=O)[C@@H](CCCCN)NC(=O)[C@@H](Cc1cccc2ccccc12)NC(=O)[C@@H](CCCCN)NC(=O)CN(Cc1ccc(C)cc1)C(=O)CN(Cc1cccc2ccccc12)C(=O)CN(CCCCN)C(=O)CNCCCCN)C(N)=O [compound 13] (H-[Nlys][Nlys][N(1-naphthylmethyl)Gly][N(4-MeBn)Gly][dK][d1Nal][dK][dNle]-NH2; N-terminus assumed)
HA, percentage of hemolysis at 150 µM (red blood cell (RBC)): 34%
MIC SA [1]: 8 µg/mL (≈ 6.67 µM)
MIC MSSP [2]: 4 µg/mL (≈ 3.34 µM)
MIC MRSP [3]: 4 µg/mL (≈ 3.34 µM)
MIC PA [4]: 8 µg/mL (≈ 6.67 µM)

nisin (ITSISLCTPGCKTGALMGCNMKTATCHCSIHVSK; also: lantibiotic: lanthionine rings and dehydro residues, places not given here; UniProt P13068 24-57, looked up) [well-characterized antimicrobial peptide used as control, reference compound]
effect on PMF (membrane depolarization, DiSC3(5) fluorescence) [5]: does not have any effect on PMF
inhibition of DNA biosynthesis rate [6]: 45%
